From patent publication US11618738B2, “Compound and application thereof in treating inflammation or inflammation-related diseases” (SICHUAN CENTER FOR TRANSLATIONAL MEDICINE OF TRADITIONAL …, priority 2017, dated 2023)
Like-named read-outs stand apart in the source and are kept apart here. Marks after values point to notes of the source that are not given here.

What was measured:
[1] = tested on: acute gouty arthritis in rats induced by sodium urate crystals; test: Foot swelling in rats with acute gouty arthritis induced by sodium urate crystals; assay type: in vivo; details: for foot volume compared with the model group (in words): medium- and high-dose groups, 24 h and 48 h after injection of sodium urate crystals
Experimental: Injecting sodium urate crystals into the joint cavity to establish an acute gouty arthritis model. Its pathological and clinical manifestations are very similar. It is a classic method commonly used in animal experiments to study gouty arthritis. This experiment will explore the effects of UTLOH series drugs on animals with acute gouty arthritis induced by sodium urate.
SPF grade SD rats, half female and half male (200-220 g/mouse), were randomly grouped by weight. The drug was administered once a day, for 3 consecutive days. […] Rats in the normal group were injected with an equal volume of sterile saline to the back of the right ankle joint. The administration was continued after modeling, once a day for 3 consecutive days. The ankle joint and foot volume of the rats in each group were measured respectively before modeling and 2 h, 4 h, 8 h, 24 h and 48 h after modeling.

[2] = tested on: xylene-induced ear swelling in mice; test: Xylene-induced ear swelling in mice; assay type: in vivo; details: for Swelling rate (%): 20 minutes after xylene, mean ± SD; for ear swelling rate versus normal group (in words): the three dose groups (6.25, 12.5, 25 mg/kg)
Text: Xylene applied to the ears of mice can cause acute inflammatory swelling of the ears of the mice. The anti-inflammatory effects of the tested drugs were observed by the degree of swelling of the ears of the mice after the inflammation.
Taking Kunming mice, SPF grade, half male and half […] (18-22 g/mouse) and randomly grouping them according to body weight. The normal control group was given 0.5% CMC-Na suspension by gavage administration, and the other groups were given corresponding drugs (0.2 ml/10 g) for 3 consecutive days, once a day. 0.5 h after the last administration, 0.02 ml of xylene was applied to the right auricle of each group of mice, and the left side was not applied as a control, establishing a mouse ear swelling model. 20 minutes after the inflammation, the mice were killed by cervical dislocation. Both ears were cut along the baseline of the auricle, and the discs on the same part of the left and right ears were punched out with a punch (6 mm of diameter) and weighed.

[3] = tested on: writhing response of mice with acetic acid; test: Writhing response of mice induced by intraperitoneal glacial acetic acid; assay type: in vivo; details: for Writhing reaction inhibition percentage (%): mean ± SD; for writhing response in mice induced by acetic acid (in words): the four dose groups (25-200 mg/kg)
Experimental: After glacial acetic acid is injected into the abdominal cavity of mice, it can cause inflammatory pain and cause writhing reaction in mice. In this experiment, the analgesic effects of UTLOH compounds were observed by the number of writhing times in mice after intraperitoneal injection of glacial acetic acid.
Taking 100 KM mice, SPF grade, half male and half […] (18-22 g/mouse), and randomly grouping them according to their body weight. Except that the blank control group was given 0.5% CMC-Na suspension by gavage administration, the other groups were given the corresponding drugs by gavage for 3 continuous days, once a day, with a gavage volume of 0.2 ml/10 g. 30 minutes after the administration on the 3rd day, each group of mice was intraperitoneally injected with 0.6% glacial acetic acid, 0.1 ml/10 g, to create writhing reaction model in mice.

NO induced by LPS = test: Inhibition of LPS-induced NO in RAW 264.7 cells (Greiss reagent); assay type: cell-based, mice; details: for IC50: Mus musculus, RAW264.7
Text: Nitric oxide (NO) is a signaling molecule that plays a key role in the pathogenesis of inflammation. Under abnormal conditions, NO is a pro-inflammatory mediator that causes inflammation due to its overproduction. Therefore, the regulation of elevated NO levels by stimulants (such as LPS) has been widely used as a screening method to identify anti-inflammatory drugs. Since NO is oxidized into nitrite and nitrate, the determination of total NO2^−/NO3^− is a conventional method for determining NO levels, and Griess reagent is usually used in this type of experiment.
This example is taken from a previous publication by Song et al.^[1]. In brief, mice RAW 264.7 cells were treated with increasing doses of each test compound at 37° C. for 1 hour. Thereafter, the cells were attacked with 20 μL/well of LPS (equivalent to a final concentration of 100 ng/mL). The cells were further incubated overnight at 37° C. A commercial ELISA assay kit obtained from R&D Systems (Minneapolis, Minn.) was used to determine the level of PGE2 in the supernatant, and three parallel experiments were performed. The optical density of each well was measured using a BioTek Epoch microplate reader (Winooski, Vt.) set to 450 nm. The NO study was performed in a similar manner, but Greiss reagent was used to monitor the level of NO, and the results were read at 550 nm.

hot plate pain in mice = test: Hot plate pain threshold in mice; assay type: in vivo; details: for Percentage increase in pain threshold (%): mean ± SD
Experimental: The hot plate method uses a certain intensity of warm heat to stimulate mice to produce pain reaction. This experiment observes the analgesic effect of UTLOH series compounds.
Female SPF-grade Kunming mice (18-22 g/mouse) were put in a hot plate apparatus at a temperature of 55±0.5° C., and the pain threshold of the mice was measured. The measurement was performed twice, and the measurement was performed every 5 minutes. Taking the mouse licking hind feet as the observation index. The mice with pain response within 30 s were selected as experimental animals. The pre-selected qualified mice were randomly grouped according to their body weight. The blank group was intraperitoneally injected with 0.2 ml/10 g body weight of normal saline, and the other groups were intraperitoneally injected with corresponding drugs. The pain threshold was measured 30 and 60 minutes after the administration. If the mouse had no pain within 60 seconds, it was taken out immediately and calculated at 60 seconds.

[4] = 10 mg/kg once a day, 2 h after modeling, mean ± SD
[5] = 10 mg/kg once a day, 4 h after modeling, mean ± SD
[6] = 10 mg/kg once a day, 8 h after modeling, mean ± SD
[7] = 10 mg/kg once a day, 24 h after modeling, mean ± SD
[8] = 10 mg/kg once a day, 48 h after modeling, mean ± SD
[9] = 20 mg/kg once a day, 2 h after modeling, mean ± SD
[10] = 20 mg/kg once a day, 4 h after modeling, mean ± SD
[11] = 20 mg/kg once a day, 8 h after modeling, mean ± SD
[12] = 20 mg/kg once a day, 24 h after modeling, mean ± SD
[13] = 20 mg/kg once a day, 48 h after modeling, mean ± SD
[14] = 40 mg/kg once a day, 2 h after modeling, mean ± SD
[15] = 40 mg/kg once a day, 4 h after modeling, mean ± SD
[16] = 40 mg/kg once a day, 8 h after modeling, mean ± SD
[17] = 40 mg/kg once a day, 24 h after modeling, mean ± SD
[18] = 40 mg/kg once a day, 48 h after modeling, mean ± SD
[19] = 6.25 mg/kg once a day for 3 days
[20] = 12.5 mg/kg once a day for 3 days
[21] = 25 mg/kg gavage once a day for 3 days
[22] = 50 mg/kg gavage once a day for 3 days
[23] = 100 mg/kg gavage once a day for 3 days
[24] = 200 mg/kg gavage once a day for 3 days
[25] = 25 mg/kg intraperitoneal, 30 min after administration
[26] = 25 mg/kg intraperitoneal, 60 min after administration
[27] = 50 mg/kg intraperitoneal, 30 min after administration
[28] = 100 mg/kg intraperitoneal, 30 min after administration
[29] = 100 mg/kg intraperitoneal, 60 min after administration
[30] = 200 mg/kg intraperitoneal, 30 min after administration
[31] = 200 mg/kg intraperitoneal, 60 min after administration

Row | SMILES | Foot swelling [1, 4] [mL] | Foot swelling [1, 5] [mL] | Foot swelling [1, 6] [mL] | Foot swelling [1, 7] [mL] | Foot swelling [1, 8] [mL] | Foot swelling [1, 9] [mL] | Foot swelling [1, 10] [mL] | Foot swelling [1, 11] [mL] | Foot swelling [1, 12] [mL] | Foot swelling [1, 14] [mL] | Foot swelling [1, 15] [mL] | Foot swelling [1, 16] [mL] | Foot swelling [1, 17] [mL] | Foot swelling [1, 18] [mL] | Swelling rate (%) [2, 19] [%] | Swelling rate (%) [2, 20] [%] | Swelling rate (%) ([2]; 25 mg/kg once a day for 3 days) | ear swelling rate versus normal group (in words) [2] | Writhing reaction inhibition percentage (%) [3, 21] [%] | Writhing reaction inhibition percentage (%) [3, 22] [%] | further results
1 | Cc1cc(C(=O)Nc2ccccc2O)no1 [UTLOH-4a] | 0.33 ± 0.20 | 0.31 ± 0.10 | 0.29 ± 0.09 | 0.20 ± 0.11 | 0.03 ± 0.11 | 0.28 ± 0.13 | 0.3 ± 0.13 | 0.32 ± 0.09 | 0.21 ± 0.14 | 0.30 ± 0.13 | 0.36 ± 0.13 | 0.36 ± 0.09 | 0.19 ± 0.11 | 0.11 ± 0.09 | 49.77 ± 22.15 | 50.59 ± 21.52 | 49.87 ± 16.44 | significantly lower | 21.63 ± 29.24 | 24.26 ± 10.11 | Foot swelling (ml) [1, 13]: 0.07 ± 13*^ ml; foot volume compared with the model group (in words) ([1]; low-): significantly reduce; Writhing reaction inhibition percentage (%) [3, 23]: 28.48 ± 15.74 %; Writhing reaction inhibition percentage (%) [3, 24]: 23.05 ± 10.08 %; writhing response in mice induced by acetic acid (in words) [3]: significantly inhibit; IC50 (NO induced by LPS; RAW 264.7 cells, LPS 100 ng/mL, overnight, read-out: NO IC50 (μM), class): < 10 µM; IC50 (NO induced by LPS; RAW 264.7 cells, LPS 100 ng/mL, overnight, read-out: NO IC50 (μM), value in brackets): 1.4 µM; inhibition of LPS-induced NO compared with leflunomide and teriflunomide (in words) (NO induced by LPS; compared with leflunomide and teriflunomide): more strongly; Percentage increase in pain threshold (%) (hot plate pain in mice; [25]): −15.08 ± 37.87%; Percentage increase in pain threshold (%) (hot plate pain in mice; [26]): −16.76 ± 33.81%; Percentage increase in pain threshold (%) (hot plate pain in mice; [27]): −6.95 ± 41.45%; percentage increase in the pain threshold, hot plate (in words) (hot plate pain in mice; 100 mg/kg and 200 mg/kg, 30 and 60 minutes after administration): significantly reduce; Percentage increase in pain threshold (%) (hot plate pain in mice; [28]): −19.99 ± 38.23 %; Percentage increase in pain threshold (%) (hot plate pain in mice; [29]): −34.23 ± 39.23 %; Percentage increase in pain threshold (%) (hot plate pain in mice; [30]): −30.12 ± 27.69 %; Percentage increase in pain threshold (%) (hot plate pain in mice; [31]): −29.65 ± 24.62 %
2 | Cc1cc(C(=O)Nc2ccc(O)cc2O)no1 [UTLOH-4e] | 0.28 ± 0.09 | 0.34 ± 0.07 | 0.33 ± 0.11 | 0.22 ± 0.12 | 0.05 ± 0.07 | 0.18 ± 0.07 | 0.24 ± 0.06 | 0.19 ± 0.07 | 0.19 ± 0.12 | 0.20 ± 0.08 | 0.25 ± 0.05 | 0.19 ± 0.10 | 0.22 ± 0.07 | 0.09 ± 0.12 | 53.22 ± 28.01 | 42.98 ± 23.60 | 41.29 ± 21.75 | significantly lower | 36.52 ± 10.08 | 35.63 ± 17.03 | Foot swelling [1, 13]: 0.09 ± 0.08 mL; foot volume compared with the model group (in words) ([1]; 2 h, 4 h, 8 h): significantly reduce; dose dependence of ear swelling rate (in words) ([2]; the higher the dose, the lower the ear swelling rate): good dose-dependent; Writhing reaction inhibition percentage (%) [3, 23]: 39.54 ± 15.18 %; Writhing reaction inhibition percentage (%) [3, 24]: 30.14 ± 17.18 %; writhing response in mice induced by acetic acid (in words) [3]: significantly inhibit; IC50 (NO induced by LPS; same method as Table 1, given as 10-50 μM, or <10 μM, read-out: IC50 of NO): ≤ 50 µM; percentage increase in the pain threshold, hot plate (in words) (hot plate pain in mice; 25 mg/kg and 200 mg/kg, 30 minutes after administration): significantly reduce; Percentage increase in pain threshold (%) (hot plate pain in mice; [25]): −17.71 ± 38.50 %; Percentage increase in pain threshold (%) (hot plate pain in mice; [26]): −2.76 ± 34.01%; Percentage increase in pain threshold (%) (hot plate pain in mice; [27]): −3.15 ± 46.73%; Percentage increase in pain threshold (%) (hot plate pain in mice; 50 mg/kg intraperitoneal, 60 min after administration): 8.36 ± 84.14%; Percentage increase in pain threshold (%) (hot plate pain in mice; [28]): 15.50 ± 103.74%; Percentage increase in pain threshold (%) (hot plate pain in mice; [29]): −11.18 ± 85.76%; Percentage increase in pain threshold (%) (hot plate pain in mice; [30]): −28.73 ± 28.36 %; Percentage increase in pain threshold (%) (hot plate pain in mice; [31]): −16.72 ± 40.12%
